Results from US20110207745A1 (priority 2009, published 2011).
Values joined by “and” are separate entries in the source; they are usually repeats but may differ in a detail not shown here. Equal values may be shown once. Where a name gives a salt, the structure may show the parent alone. Read-outs that look alike come from different tables or passages of the source.

What was measured:
[1] = for % Purity after 60° C./80% RH, 2 wks / % Purity after 80° C., 2 wks: 2 weeks; for % Purity after 60° C./80% RH, 2 wks / % Purity after 60° C./80% RH, 4 wks / % Purity after 80° C., 2 wks / % Purity after 80° C., 4 wks / Initial Purity / % Purity after 40° C./75% RH, 2 wks / % Purity after 40° C./75% RH, 4 wks: HPLC area %; for % Purity after 60° C./80% RH, 4 wks / % Purity after 80° C., 4 wks: 4 weeks; for Initial Purity: before storage
Method: Stress Experiments. Solids are stressed under different temperature or relative humidity (RH) environments for a measured time period. Specific RH values are achieved by placing the sample inside sealed chambers containing saturated salt solutions, as known in the art. The salt solutions are selected and prepared following an ASTM standard procedure. Samples are analyzed by XRPD immediately after removal from the stress environment.
Analyses are carried out on an Agilent® model 1100 high performance liquid chromatograph using gradient elution on a reversed phase column utilizing ultraviolet (UV) detection. Approximately 25 mg of the sample is weighed accurately and dissolved in methanol/water/trifluoroacetic acid (35:65:0.05) to a volume of 50 mL. The sample solution is analysed using the conditions specified below:
The content of the drug and related substances are quantified by area (%).
Chemical Stability. The chemical stability of Form I of the mono-HCl salt of Compound A1 was assessed by stressing the material at various temperature/relative humidity/light conditions, then analyzing by HPLC.
Chemical Stability Data. The chemical stability of a sample of Form I of the sesquifumarate salt of Compound A1 was assessed by stressing the material at various temperature/relative humidity/light conditions, then analyzing by HPLC.

rat = assay: Punished responding procedure (modified Geller-Seifter conflict test); settings: 3.5 μmol/kg by mouth
Excerpt: Method. In the conflict test, hungry animals were trained to lever-press for food delivery in a standard operant chamber under 2 conditions. In the first condition, referred to as the unsuppressed component, food was delivered on average after 17 lever-presses were made (also called a VR17 schedule of reinforcement). In the second condition, referred to as the suppressed component and signaled by flashing lights inside the operant chamber, food was also delivered following an average of 17 lever-presses, but electric shock was additionally delivered to the floor of the cage under a separate VR17 schedule. Daily sessions consisted of 5 alternating presentations of each component type: suppressed (3 minutes in duration) and unsuppressed (2 minutes in duration). The number of lever presses emitted in the suppressed component was obviously low relative to the unsuppressed component.
Drug Administration and Preparation. […] Monday and Wednesday were washout/baseline days.
Apparatus. Standard 2-lever operant chambers were used (Med Associates). The chambers were fitted with 2 retractable response levers and a stimulus lamp over each of the 2 levers. A pellet dispenser delivered 45 mg food pellets, (Bio Serv) to a cup located inside of the chamber below and between the 2 response levers. A lamp at the top and back of the chamber served as houselights. The grid floors of the operant chambers were interfaced to shock generators and scramblers (Med Associates). All events in the chambers were controlled and monitored by a microprocessor.
Procedures. There were 2 components in the procedure: 1) an unsuppressed responding component (unpunished) with 2 minutes in duration; and 2) a suppressed responding component (punished) with 3 minutes in duration.
In the unpunished component, the houselights and both stimulus lamps over the response levers were turned on, the lever on the left-hand side of the chamber extended, and a food pellet was delivered following an average of 17 responses on the lever in the chamber (range 3 to 40 responses)—a variable-ratio 17 schedule (VR17).
In the punished component (which followed the unpunished component), the right-hand lever was extended into the chamber; the stimulus lamps and houselights were turned on and off at 1 second intervals, in succession, which served as a cue for this component; and food was available under a VR17 schedule, but was accompanied by an electrical current (0.5 second duration) that was delivered to the grid floor of the chamber under an independent VR17 schedule. The level of the current was adjusted for each individual subject until responding was reduced in the punished component to a level that was about 5% to 10% that of the unpunished component, and ranged from 0.2 mA to 0.75 mA. Unpunished and punished components were separated by 10 second time-out periods in which both response levers were retracted and all stimulus lamps turned off. 2 minute unpunished and 3 minute punished components alternated until 5 of each were completed. Daily sessions always began with the unpunished responding component. […] Several doses were tested on a given test day in different subjects. Each dose, then, was tested in different sub-set of rats.
Data Analysis. The dependent variables recorded were the rate of responding in unpunished and punished components (total responses/total time under the component) and the number of shocks delivered.

[2] = Intrinsic dissolution rate in simulated biological media; format: physicochemical
Method: Intrinsic dissolution rate is determined at 37° C. using a Distek Dissolution System model 5100A with a sample size of approximately 200 mg (0.5 cm^2 disc) and 500 mL dissolution medium. The paddle speed is set to 500 rpm and the paddle height to approximately 2.54 cm above the disc surface. The concentration of sample in solution is determined by HPLC.

[3] = Solubility in simulated biological media; format: physicochemical; settings: FaSSIF (fasted-state simulated intestinal fluid), initial pH 6.51, mean ± SD, n = 2
Excerpt: Solubility and Dissolution Rate Data.
Solubility and Dissolution Rate Data. […]

[4] = Ultraviolet light, 25° C./60% RH, 2x ICH (2 days), stored open
[5] = Ultraviolet light, 25° C./60% RH, 3x ICH (3 days), stored open
[6] = Ultraviolet light, 25° C./60% RH, ICH (1 day), stored open
[7] = White light, 25° C./60%, ICH (7 days), stored open

With `CCN(CC)C(=O)c1ccc([C@H](c2cccc(N)c2)N2CCN(Cc3ccc(F)cc3)CC2)cc1` [Amorphous Tri-HCl Salt of Compound A1, 4-{(R)-(3-aminophenyl)[4-(4-fluorobenzyl)piperazin-1-yl]methyl}-N,N-diethylbenzamide] the “% Purity after 60° C./80% RH, 2 wks” value [1] was 93.5%, the “% Purity after 60° C./80% RH, 4 wks” value [1] was 89.7% and the “% Purity after 80° C., 2 wks” value ([1]; 80° C.) was 93.1%. The “% Purity after 80° C., 4 wks” value ([1]; 80° C.) was 91.1% and the “Initial Purity” value [1] was 97.7%.
In the case of `CN1C(=O)CN=C(c2ccccc2)c2cc(Cl)ccc21` [diazepam, reference compound], the “level of efficacy in modified Geller-Seifter conflict model” value (rat) is reported as “about 250%”.
With `CCN(CC)C(=O)c1ccc([C@H](c2cccc(N)c2)N2CCN(Cc3ccc(F)cc3)CC2)cc1` [Sulfate Salt of Compound A1, 4-{(R)-(3-aminophenyl)[4-(4-fluorobenzyl)piperazin-1-yl]methyl}-N,N-diethylbenzamide] the “% Purity after 40° C./75% RH, 2 wks” value ([1]; 40° C./75% RH) was 92.6% and 88.7%, the “% Purity after 40° C./75% RH, 4 wks” value ([1]; 40° C./75% RH) was 91.2% and 87.3% and the “% Purity after 60° C./80% RH, 2 wks” value [1] was 74.1% and 80.5%. For the same compound, the “% Purity after 60° C./80% RH, 4 wks” value [1] was 62.3% and 80.6%, the “% Purity after 80° C., 2 wks” value ([1]; 80° C.) was 78.5% and 88.7% and the “% Purity after 80° C., 4 wks” value ([1]; 80° C.) was 67.1% and 85.7%. The “Initial Purity” value [1] was 93.3% and 94.7%.
With `CCN(CC)C(=O)c1ccc([C@H](c2cccc(N)c2)N2CCN(Cc3ccc(F)cc3)CC2)cc1` [Form I of the mono-HCl salt of Compound A1] [4-{(R)-(3-aminophenyl)[4-(4-fluorobenzyl)piperazin-1-yl]methyl}-N,N-diethylbenzamide] the “% Purity (after challenge)” value ([1]; 25° C./60% RH, 7 days) was 99.8%, the “% Purity (reference material)” value ([1]; 25° C./60% RH, 7 days) was 103.2% and the “% Purity after 40° C./75% RH, 2 wks” value ([1]; 40° C./75% RH) was 97.3% and 98.8%. For the same compound, the “% Purity after 40° C./75% RH, 4 wks” value ([1]; 40° C./75% RH) was 97.2% and 98.8%, the “% Purity (after challenge)” value ([1]; 40° C./75% RH, 7 days) was 99.8% and the “% Purity (reference material)” value ([1]; 40° C./75% RH, 7 days) was 102.1%. For the same compound, the “% Purity after 60° C./80% RH, 2 wks” value [1] was 90.4% and 97.6%, the “% Purity after 60° C./80% RH, 4 wks” value [1] was 89.0% and 95.3% and the “% Purity after 80° C., 2 wks” value ([1]; 80° C.) was 94.1% and 96.9%. For the same compound, the “% Purity after 80° C., 4 wks” value ([1]; 80° C.) was 92.3% and 95.4%, the “% Purity (after challenge)” value ([1]; 80° C., 7 days) was 99.8% and the “% Purity (reference material)” value ([1]; 80° C., 7 days) was 101.4%. For the same compound, the “% Purity (after challenge)” value ([1]; Reference, 0 days) was 99.8%, the “% Purity (reference material)” value ([1]; Reference, 0 days) was 100% and the “% Purity (after challenge)” value [1, 4] was 99.2%. The “% Purity (reference material)” value [1, 4] was 95.0%, the “% Purity (after challenge)” value [1, 5] was 99.0% and the “% Purity (reference material)” value [1, 5] was 94.7%. The “% Purity (after challenge)” value [1, 6] was 99.6%, the “% Purity (reference material)” value [1, 6] was 98.0% and the “% Purity (after challenge)” value [1, 7] was 98.5%. The “% Purity (reference material)” value [1, 7] was 95.6%, the “Initial Purity” value [1] was 97.0% and 98.7% and the “IDR (intrinsic dissolution rate)” value ([2]; FaSSIF, initial pH 6.51, mean ± SD, n = 2) was 48.4 μg/min/cm^2. The “IDR (intrinsic dissolution rate)” value ([2]; FaSSIF, initial pH 6.51, mean ± SD, n = 2, listed as Form I of the Compound A1 Mono-HCl Salt) was 48.4 ± 7.12 μg/min/cm^2, the “IDR (intrinsic dissolution rate)” value ([2]; FeSSIF, initial pH 5.03, mean ± SD, n = 2) was 91.6 μg/min/cm^2 and the “IDR (intrinsic dissolution rate)” value ([2]; FeSSIF, initial pH 5.03, mean ± SD, n = 2, listed as Form I of the Compound A1 Mono-HCl Salt) was 91.6 ± 5.48 μg/min/cm^2. For the same compound, the “IDR (intrinsic dissolution rate)” value ([2]; SGF, initial pH 1.3) was “too soluble to permit determination of its IDR”, the “Solubility, 3 hr” value ([3]; 3 hr) was 1.72 mg/mL and the “Solubility, 24 hr” value ([3]; 24 hr) was 0.83 mg/mL.
In the case of `CCN(CC)C(=O)c1ccc([C@H](c2cccc(N)c2)N2CCN(Cc3ccc(F)cc3)CC2)cc1` [Phosphate Salt of Compound A1, 4-{(R)-(3-aminophenyl)[4-(4-fluorobenzyl)piperazin-1-yl]methyl}-N,N-diethylbenzamide], the “% Purity after 40° C./75% RH, 2 wks” value ([1]; 40° C./75% RH) is reported as 88.6%, the “% Purity after 40° C./75% RH, 4 wks” value ([1]; 40° C./75% RH) is reported as 87.7% and the “% Purity after 60° C./80% RH, 2 wks” value [1] is reported as 81.4%. The “% Purity after 60° C./80% RH, 4 wks” value [1] was 78.4%, the “% Purity after 80° C., 2 wks” value ([1]; 80° C.) was 86.6% and the “% Purity after 80° C., 4 wks” value ([1]; 80° C.) was 83.4%. For the same compound, the “Initial Purity” value [1] was 91.2%.
